Test results reported in patent US7452894B2, “Purine derivatives as purinergic receptor antagonists” (Vernalis Research Limited, priority 2001, dated 2008).

Tested on: not given
Experiment: not given
Conditions: not given

Structure (SMILES)	melting point
CN(Cc1ccccc1)C(=O)Cn1cnc2c(-c3ccco3)nc(N)nc21 [Example 145, 2-Amino-N-benzyl-6-(2-furyl)-N-methyl-9H-purine-9-acetamide]	224 to 224.1 °C
Cc1ccsc1-c1nc(N)nc2[nH]cnc12 [Example 150, 6-(3-Methyl-2-thienyl)-1H-purine-2-amine]	247 to 248 °C
Cc1nc(-c2ccco2)c2nc[nH]c2n1 [Example 153, 6.(2-Furyl)-2-methyl-1H-purine]	342 °C (dec.)
COc1ccc(NC(=O)Cn2cnc3c(-c4ccco4)nc(N)nc32)c(C)c1 [Example 169, 2-Amino-6-(2-furyl)-N-(4-methoxy-2-methylphenyl)-9H-purine-9-acetamide]	287.1 to 288.2 °C
Cc1ccc(Cn2cnc3c(-c4ccco4)nc(C#N)nc32)cc1 [Example 173, 6-(2-Furyl)-9-(4-methylbenzyl)-9H-purine-2-carbonitrile]	196.5 °C (dec.)
Nc1nc(-c2ccco2)c2ncn(CCN3C(=O)c4ccccc4C3=O)c2n1 [Example 174, 6-(2-Furyl)-9-(2-phthalimidoethyl)-9H-purine-2-amine]	160 °C (dec.)
N#Cc1cccc(Cn2cnc3c(-c4ccco4)nc(N)nc32)c1 [Example 177, 9-(3-Cyanobenzyl)-6-(2-furyl)-9H-purine-2-amine]	302.5 to 304.8 °C
Cc1ccc(-c2nc(N)nc3[nH]cnc23)o1 [Example 195, 6-(5-Methyl-2-furyl)-1H-purine-2-amine]	> 190 °C (dec.)
Nc1nc(-c2ccco2)c2ncn(Cc3ccccc3[N+](=O)[O-])c2n1 [Example 197, 6-(2-Furyl)-9-(2-nitrobenzyl)-9H-purine-2-amine]	290.6 to 290.7 °C
Nc1nc(-c2ccco2)c2ncn(Cc3cccc(F)c3)c2n1 [Example 203, 9-(3-Fluorobenzyl)-6-(2-furyl)-9H-purine-2-amine]	218.2 to 218.5 °C
Cc1ccc(-c2nc(N)nc3c2ncn3C(=O)NCc2ccccc2)o1 [Example 204, 2-Amino-N-benzyl-6-(5-methyl-2-furyl)-9H-purine-9-carboxamide]	160 °C (dec.)
Cn1cncc1-c1nc(N)nc2[nH]cnc12 [Example 209, 6-(1-Methyl-1H-imidazol-5-yl)-1H-purine-2-amine]	300 °C (dec.)
CS(=O)(=O)Nc1ccccc1Cn1cnc2c(-c3ccco3)nc(N)nc21 [Example 210, 6-(2-Furyl)-9-(2-methanesulphonylaminobenzyl)-9H-purine-2-amine]	254.7 to 255.3 °C
COC(=O)c1ccc(Cn2cnc3c(-c4ccco4)nc(N)nc32)cc1 [Example 215, Methyl 4-(2-amino-6-(2-furyl)-9H-purine-9-ylmethyl)benzoate]	219.5 to 219.7 °C
Nc1nc(-c2ccco2)c2ncn(Cc3ccc(C(=O)O)cc3)c2n1 [Example 216, 4-(2-Amino-6-(2-furyl)-9H-purine-9-ylmethyl)benzoic acid]	301.1 to 302.1 °C
CS(=O)(=O)Nc1cccc(Cn2cnc3c(-c4ccco4)nc(N)nc32)c1 [Example 217, 6-(2-Furyl)-9-(3-methanesulphonylaminobenzyl)-9H-purine-2-amine]	171.2 to 171.3 °C
Nc1nc(-c2ccco2)c2ncn(CC(=O)NCc3ccco3)c2n1 [Example 218, 2-Amino-6-(2-furyl)-N-(2-furylmethyl)-9H-purine-9-acetamide]	276.4 to 276.9 °C
COc1cc(Cn2cnc3c(-c4ccco4)nc(N)nc32)cc(OC)c1 [Example 219, 9-(3,5-Dimethoxybenzyl)-6-(2-furyl)-9H-purine-2-amine]	205.3 to 205.4 °C

Structure (SMILES)	melting point
Nc1nc(-c2ccco2)c2ncn(Cc3cccc(C(=O)NCc4ccccc4)c3)c2n1 [Example 226, 3-(2-Amino-6-(2-furyl)-9H-purine-9-ylmethyl)-N-benzylbenzamide]	243.2 to 243.8 °C
Nc1nc(-c2ccco2)c2ncn(Cc3ccc(C(=O)NCc4ccccc4)cc3)c2n1 [Example 227, 4-(2-Amino-6-(2-furyl)-9H-purine-9-ylmethyl)-N-benzylbenzamide]	170 to 171.9 °C
Cc1noc(C)c1Cn1cnc2c(-c3ccco3)nc(N)nc21 [Example 229, 9-(3,5-Dimethylisoxazol-4-ylmethyl)-6-(2-furyl)-9H-purine-2-amine]	282.4 to 282.6 °C
COc1cccc(NC(=O)Cn2cnc3c(-c4ccco4)nc(N)nc32)c1 [Example 231, 2-Amino-6-(2-furyl)-N-(3-methoxyphenyl)-9H-purine-9-acetamide]	278.5 to 280.4 °C
CN(C)C(=O)c1ccc(Cn2cnc3c(-c4ccco4)nc(N)nc32)cc1 [Example 233, 4-(2-Amino-6-(2-furyl)-9H-purine-9-ylmethyl)-N,N-dimethylbenzamide]	223.1 to 226.9 °C
COc1ccccc1CNC(=O)Cn1cnc2c(-c3ccco3)nc(N)nc21 [Example 236, 2-Amino-6-(2-furyl)-N-(2-methoxybenzyl)-9H-purine-9-acetamide]	279.9 to 281 °C
Nc1nc(-c2ccco2)c2ncn(CC(=O)NCc3ccccc3F)c2n1 [Example 237, 2-Amino-N-(2-fluorobenzyl)-6-(2-furyl)-9H-purine9-acetamide]	291.9 to 292.1 °C
Nc1nc(-c2ccco2)c2ncn(Cc3ccccc3NS(=O)(=O)c3cccs3)c2n1 [Example 238, 6-(2-Furyl)-9-(2-(2-thienylsulphonylamino)benzyl)-9H-purine-2-amine]	265.6 to 266 °C
Cc1noc(C)c1S(=O)(=O)Nc1ccccc1Cn1cnc2c(-c3ccco3)nc(N)nc21 [Example 239, 6-(2-Furyl)-9-(2-(3,5-dimethylisoxazol-4-ylsulphonylamino)benzyl)-9H-purine-2-amine]	251.4 to 253.1 °C
Cc1ccc(-c2nc(N)nc3[nH]cnc23)nc1 [Example 241, 6-(5-Methyl-2-pyridinyl)-1H-purine-2-amine]	246.2 to 248 °C
Cc1ccc(-c2nc(N)nc3c2ncn3Cc2ccccc2F)nc1 [Example 243, 9-(2-Fluorobenzyl)-6-(5-methyl-2-pyridinyl)-9H-purine-2-amine]	299.8 °C
C[C@H](N)Cn1cnc2c(-c3ccco3)nc(N)nc21 [Example 251, (2S)-9-(2-Amino-1-propyl)-6-(2-furyl)-9H-purine-2-amine]	247 to 252 °C
NCCn1cnc2c(-c3ccco3)nc(N)nc21 [Example 257, 9-(2-Aminoethyl)-6-(2-furyl)-9H-purine-2-amine]	190 °C (dec.)
Nc1nc(-c2ccn[nH]2)c2ncn(Cc3ccccc3F)c2n1 [Example 262, 9-(2-Fluorobenzyl)-6-(1H-pyrazol-3-yl)-9H-purine-2-amine]	257 to 259 °C
Nc1nc(-c2cncs2)c2ncn(Cc3ccccc3F)c2n1 [Example 267, 9-(2-Fluorobenzyl)-6-(thiazol-5-yl)-9H-purine-2-amine]	190.5 to 190.6 °C
CC(C)(C)OC(=O)n1ccc2c(Cn3cnc4c(-c5ccco5)nc(N)nc43)cccc21 [Example 270, tert-butyl 4-(2-amino-6-(2-furyl)-1H-purine-9-ylmethyl)indole-1-carboxylate]	190.4 to 190.5 °C
Nc1nc(-c2ccco2)c2ncn(Cc3cccc4[nH]ccc34)c2n1 [Example 271, 6-(2-Furyl)-9-(4-indolylmethyl)-9H-purine-2-amine]	305.4 to 306.8 °C

Molecular target: human adenosine A2A receptors (Homo sapiens, UniProt P29274)
Sequence (P29274 whole entry): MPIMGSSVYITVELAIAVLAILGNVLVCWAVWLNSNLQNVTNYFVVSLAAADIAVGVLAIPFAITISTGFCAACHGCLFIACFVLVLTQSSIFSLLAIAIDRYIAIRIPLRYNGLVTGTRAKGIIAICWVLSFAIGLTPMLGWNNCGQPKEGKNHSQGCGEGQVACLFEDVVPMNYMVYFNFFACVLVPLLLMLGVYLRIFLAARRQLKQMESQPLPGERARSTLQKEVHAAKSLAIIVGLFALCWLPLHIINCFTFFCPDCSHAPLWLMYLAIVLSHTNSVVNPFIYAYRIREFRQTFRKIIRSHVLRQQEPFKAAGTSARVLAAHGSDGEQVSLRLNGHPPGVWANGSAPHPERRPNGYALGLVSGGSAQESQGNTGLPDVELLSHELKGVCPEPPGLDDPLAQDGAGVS
Experiment: Binding affinities at hA2A receptors, displacement of [3H]-CGS 21680
Conditions: not given

Structure (SMILES)	Ki [nM]
CN(C)c1nc(-c2ccco2)c2nc[nH]c2n1 [Example 3, N,N-Dimethyl-6-(2-furyl)-1H-purine-2-amine]	23
CCCCNC(=O)n1cnc2c(-c3ccco3)nc(N)nc21 [Example 36, 2-Amino-N-n-butyl-6-(2-furyl)-9H-purine-9-carboxamide]	7
COc1ccc(CNC(=O)n2cnc3c(-c4ccco4)nc(N)nc32)cc1 [Example 37, 2-Amino-6-(2-furyl)-N-(4-methoxybenzyl)-9H-purine-9-carboxamide]	4
CCCCCNC(=O)n1cnc2c(-c3ccco3)nc(N)nc21 [Example 52, 2-Amino-6-(2-furyl)-N-n-pentyl-9H-purine-9-carboxamide]	5
Nc1nc(-c2ccco2)c2ncn(C/C=C/c3ccccc3)c2n1 [Example 57, 6-(2-Furyl)-9-(1-phenyl-1-propene-3-yl)-9H-purine-2-amine]	12
Nc1nc(-c2ccco2)c2ncn(C(=O)NCc3ccc(Cl)c(Cl)c3)c2n1 [Example 80, 2-Amino-N-(3,4-dichlorobenzyl)-6-(2-furyl)-9H-purine-9-carboxamide]	5
Nc1nc(-c2ccco2)c2ncn(C(=O)NCc3ccc(Cl)cc3Cl)c2n1 [Example 93, 2-Amino-N-(2,4-dichlorobenzyl)-6-(2-furyl)-9H-purine-9-carboxamide]	4

Same assay, conditions: human adenosine A2A receptor, radioligand [3H]-CGS 21680

Structure (SMILES)	Ki [nM]
Nc1nc(-c2ccco2)c2ncn(C(=O)NCc3ccccc3)c2n1 [Example 26, 2-Amino-N-benzyl-6-(2-furyl)-9H-purine-9-carboxamide]	1
Cc1ccc(CNC(=O)n2cnc3c(-c4ccco4)nc(N)nc32)cc1 [Example 38, 2-Amino-6-(2-furyl)-N-(4-methylbenzyl)-9H-purine-9-carboxamide]	1
Nc1nc(-c2ccco2)c2ncn(C(=O)NCc3ccccc3Cl)c2n1 [Example 39, 2-Amino-N-(2-chlorobenzyl)-6-(2-furyl)-9H-purine-9-carboxamide]	1
C[C@H](NC(=O)n1cnc2c(-c3ccco3)nc(N)nc21)c1ccccc1 [Example 45, (1S)-2-Amino-6-(2-furyl)-N-(1-phenyethyl)-9H-purine-9-carboxamide]	2
Cc1cccc(CNC(=O)n2cnc3c(-c4ccco4)nc(N)nc32)c1 [Example 47, 2-Amino-6-(2-furyl)-N-(3-methylbenzyl)-9H-purine-9-carboxamide]	1
Nc1nc(-c2ccco2)c2ncn(C(=O)NCc3ccc(F)cc3)c2n1 [Example 79, 2-Amino-N-(4-fluorobenzyl)-6-(2-furyl)-9H-purine-9-carboxamide]	1
Nc1nc(-c2ccco2)c2ncn(C(=O)NCCc3ccccc3)c2n1 [Example 92, 2-Amino-6-(2-furyl)-N-(2-phenylethyl)-9H-purine-9-carboxamide]	6
